Results taken from US6509146B1, “Scalable long-term shelf preservation of sensitive biological solutions and suspensions” (Universal Preservation Technologies, Inc., priority 1996, dated 2003).

Key:
[1] = Urokinase activity after foam drying and storage; type: physicochemical; details: 40wt % sucrose foam
Procedure: (6) Freezer-dried samples of Urokinase were rehydrated with 2 ml of 40wt % sucrose. The solutions were then transferred to 20 ml sterilized glass vials for future preservation by drying. Before drying, the vials were covered with gray slotted rubber stoppers. The vials were dried inside a vacuum chamber. The vials were sitting on the surface of a stainless steel shelf inside the chamber. The shelf temperature was controlled by circulating ethylene glycol/water antifreeze at a controlled temperature inside the shelf. Before the vacuum was applied the shelf temperature was decreased to 5° C. Then the hydrostatic pressure inside the chamber was decreased to 0.5 Torr. Under such a conditions the suspension boiled 30 min. […] Visually, stable dry foams inside the vials under these experimental conditions were formed during 3 hours. After an additional 12 hours of drying at room temperature, the temperature was increased to 45° C. for an additional 24 hours. After that the chamber was filled with the dry N2 gas, the rubber stoppers were pushed down and the vials were sealed with aluminum crimped seal.
The samples were assayed right after drying and after 30 days of storage at 40° C. After drying the Urokinase, activity was 93% of the initial activity. This decrease was associated with the loss of Urokinase during transformation from initial vials to the vials at which the Urokinase was dried. […]

[2] = potency of Amphotericin after foam drying and storage; type: physicochemical
Procedure: (7) Freeze-dried samples of Amphotericine B were rehydrated with 5 ml 40wt % sucrose per vial. Then the solutions were transferred into 50 ml sterilized glass vials for future preservation by drying. Before drying, the vials were covered with gray butyl slotted rubber stoppers. The vials were dried inside a vacuum chamber. The vials were sitting on the surface of a stainless steel shelf inside the chamber. The shelf temperature was controlled by circulating ethylene glycol/water antifreeze at a controlled temperature inside the shelf. Before the vacuum was applied the shelf temperature was decreased to 5° C. The hydrostatic pressure inside the chamber was decreased to 0.5 Torr. Under such a conditions the suspension boiled 30 min. The temperature of the shelf was then slowly (during 30 min) increased to 25° C. Visually, stable dry foams inside the vials under these experimental conditions were formed after 3 hours. After an additional 12 hours of drying at room temperature, the chamber was filled with the dry N2 gas and the rubber stoppers in a portion of the vials were pushed down. The vials were removed from the chamber and subsequently sealed with aluminum crimped seal. The samples were assayed right after drying and after 30 day of storage at 27.50 and 40° C. The results are shown in Table 1, together with the results obtained in the next experiment.
Another set of freeze-dried samples of Amphotericin B were rehydrated with 5 ml 40wt % sucrose per vial. The solutions were then transferred into sterilized glass vials for future preservation by drying similar to that described above with additional drying at 45° C. for additional 24 hours. After that, the chamber was filled again with the dry N2 gas, the rubber stoppers were pushed down and the vials were sealed. The samples were assayed right after drying and after 30 day of storage at 27.50 and 40° C.

Potency of Amphotericin (%) ([2]; Freeze-dried control)	Potency of Amphotericin (%) After 30 days of storage at 27.5° C. ([2]; Td = 25° C.) [%]	Potency of Amphotericin (%) After drying ([2]; Td = 25° C. (maximum temperature during drying)) [%]	Potency of Amphotericin (%) After 30 days of storage at 27.5° C. ([2]; Td = 45° C.) [%]	Potency of Amphotericin (%) After 30 days of storage at 40° C. ([2]; Td = 45° C.) [%]	Potency of Amphotericin (%) After drying ([2]; Td = 45° C.) [%]	Molecule	Urokinase activity, % of the initial activity ([1]; after 30 days of storage at 40° C.) [%]	Urokinase activity, % of the initial activity ([1]; right after drying (max 45° C.)) [%]
–	–	–	–	–	–	Urokinase	90	93
126	114	108	102	104	103	C[C@@H]1[C@H](O)[C@@H](C)/C=C/C=C/C=C/C=C/C=C/C=C/C=C/[C@H](O[C@@H]2O[C@H](C)[C@@H](O)[C@H](N)[C@@H]2O)C[C@@H]2O[C@](O)(C[C@@H](O)C[C@@H](O)[C@H](O)CC[C@@H](O)C[C@@H](O)CC(=O)O[C@H]1C)C[C@H](O)[C@H]2C(=O)O [Amphotericin, Amphotericin B]	–	–
